Measurements published in patent US6887691B2, “DNA coding for protein which confers on bacterium Escherichia coli resistance to L-homoserine, and method for producing L-amino acids” (priority 1998, dated 2005).

Tests used:
Assay in all cases: MIC of amino acids and amino acid analogues on M9 agar test plates
Format in all cases: cell-based
E. coli strain N99/pRhtB = conditions: Escherichia coli
Experimental: (§1) Then the susceptibility of the thus obtained E. coli strain N99 rhtB::cat, of the initial strain N99 (rhtB^+) and of its derivative transformed with pRhtB plasmid, N99/pRhtB, to some amino acids and amino acid analogues was tested. overnight cultures of the strains grown in M9 minimal medium at 37° C. with a rotary shaker (10^9 cfu/ml) were diluted 1:100 and grown for 5 hours under the same conditions. Then the log phase cultures thus obtained were diluted and about 10^4 of alive cells were applied to well-dried test plates with M9 agar containing doubling increments of amino acids or analogues. The minimum inhibitory concentration (MIC) of these compounds were examined after 40-46 h cultivation.

[1] = test system: E. coli strain N99 (rhtB+); conditions: Escherichia coli, initial strain, doubling increments, examined after 40-46 h cultivation
Experimental: as §1

[2] = test system: E. coli strain N99 rhtB::cat; conditions: Escherichia coli
Experimental: To inactivate the chromosomal rhtB gene the plasmid pNPZ46 was constructed (FIG. 1) on the basis of pUK21 vector. It harbors a DNA fragment from 86 min of E. coli chromosome, with the rhtB gene and 5′-flanking and 3′-flanking regions thereof. Then the ClaI-Eco47III fragment of the pNPZ46 plasmid rhtB gene was substituted for AsuII-BsrBI fragment containing cat (Cm^R) gene of pACYC184 plasmid (Chang and Cohen, J. Bacteriol., 134, 1141-1156, 1978) giving the pNPZ47 plasmid (FIG. 1). To introduce the obtained insertionally inactivated rhtB gene into the chromosome of the E. coli strain N99 (the streptomycin-resistant derivative of the known strain W3350 (Campbell, Virology, 14, 22-33, 1961)), the method of Parker and Marinus was used (Parker, B. and Marinus, M. G., Gene, 73, 531-535, 1988).
as §1

N[C@@H](CO)C(=O)O [L-serine]
MIC (E. coli strain N99/pRhtB): 10000 µg/mL
MIC [1]: 5000 µg/mL
MIC [2]: 5000 µg/mL

CN(C)CC(N)C(=O)O (racemic) [4-aza-DL-leucine, reference compound]
MIC (E. coli strain N99/pRhtB): 100 µg/mL
MIC [1]: 40 µg/mL
MIC [2]: 40 µg/mL

CCCC(N)(O)C(=O)O (stereo not drawn) [AHVA, α-amino-α-hydroxyvaleric-acid, reference compound]
MIC (E. coli strain N99/pRhtB): 2000 µg/mL
MIC [1]: 50 µg/mL
MIC [2]: 25 µg/mL

NCCSC[C@H](N)C(=O)O [AEC, S-(2-aminoethyl)-L-cysteine, reference compound]
MIC (E. coli strain N99/pRhtB): 25 µg/mL
MIC [1]: 10 µg/mL
MIC [2]: 10 µg/mL

N[C@@H](CCO)C(=O)O [L-homoserine]
MIC (E. coli strain N99/pRhtB): 30000 µg/mL
MIC [1]: 250 µg/mL
MIC [2]: 125 µg/mL

C[C@@H](O)[C@H](N)C(=O)O [L-threonine]
MIC (E. coli strain N99/pRhtB): 50000 µg/mL
MIC [1]: 30000 µg/mL
MIC [2]: 30000 µg/mL

CC(C)[C@H](N)C(=O)O [L-valine]
MIC (E. coli strain N99/pRhtB): 1 µg/mL
MIC [1]: 0.5 µg/mL
MIC [2]: 0.5 µg/mL
